For one test, the target named is T1, recombinant human ARG2 (Homo sapiens, UniProt P78540).
T1 construct: made in house; host or cells: E. coli
T1 sequence (P78540 23-354): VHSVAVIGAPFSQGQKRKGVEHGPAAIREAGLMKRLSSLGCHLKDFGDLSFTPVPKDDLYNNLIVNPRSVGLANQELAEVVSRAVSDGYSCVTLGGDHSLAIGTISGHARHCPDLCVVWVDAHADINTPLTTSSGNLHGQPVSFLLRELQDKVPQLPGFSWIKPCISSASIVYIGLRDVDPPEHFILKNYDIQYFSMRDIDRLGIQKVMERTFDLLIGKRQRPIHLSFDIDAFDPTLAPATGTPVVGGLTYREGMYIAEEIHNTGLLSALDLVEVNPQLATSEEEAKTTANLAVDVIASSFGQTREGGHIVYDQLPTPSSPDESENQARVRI
Put plainly: Recombinant arginase inhibition assay (colorimetric urea detection), ARG2. The conditions noted are these: recombinant human ARG2, 20 mM L-arginine, 37 °C, 1 h, pH 7.4. Type of test: biochemical. On the procedure: Recombinant enzymes (ARG1 or ARG2) were produced at Molecure SA—biosynthesized in E. coli expression system, purified by fast protein liquid chromatography, and stored at −80 °C in the storage buffer (20 mM Tris pH 8.0, 100 mM NaCl, 10 mM DDT, 10% glycerol). The enzymatic reaction was carried out at 37 °C for 1 h in the assay buffer (100 mM sodium phosphate buffer, 130 mM NaCl, pH 7.4) with the addition of 1 mg/mL BSA in the presence of 200 µM MnCl2 (enzyme cofactor), 10 mM (for ARG1) or 20 mM (for ARG2) of L-arginine hydrochloride (enzyme substrate), and serial dilutions of the test compounds. The inhibition of the arginase activity was determined by colorimetric detection of produced urea, as previously described with minor changes. Briefly, 150 µL of freshly prepared developing reagent (2 mM o-phthaldialdehyde (OPA), 2 mM N-(1-naphthyl)ethylenediamine dihydrochloride (NED), 50 mM boric acid, 1 M sulfuric acid, 0.03% Brij-35) was added to each well, incubated for 20 min at RT, then the absorbance at 515 nm was measured. Normalized values were fitted to a four-parameter equation using GraphPad Prism and IC50 values were determined. […]

A further test concerns K562 tumours. Put plainly: K562 xenograft model in athymic nude mice. The test is classed as in vivo, mouse. On the procedure:
CT26 and K562 in vivo experiments were conducted at Molecure SA. All experimental procedures were approved by the 1st Local Ethics Committee in Warsaw (Poland). For the syngeneic CT26 model, 7–8-week old BALB/c females (n = 9–18 per group, BALB/cAnNCrl, Charles River Laboratories) were injected subcutaneously in the right flank with 5 × 10^5 CT26 cells. […] Anti-PD-L1 antibody (InVivoPlus anti-mouse PD-L1, clone 10F.9G2, BioXCell, lot 615416D1) was injected intraperitoneally at 2.5 mg/kg on days: 8, 10, 12, 14 and 16 post tumour cells inoculation. Control groups received vehicle (saline) or isotype antibody (InVivoPlus rat IgG2b, anti-KLH, BioXCell, lot 629816D1). For the xenograft K562 model, 7–8 week-old athymic nude mice (n = 8–11 per group, Crl:NU(NCr)-Foxn1^nu, Charles River Laboratories) or NK cell-deficient Fox Chase SCID Beige mice (n = 10–12 per group, CB17.Cg-Prkdc^scidLyst^bg-J/Crl, Charles River Laboratories) were injected subcutaneously in the right flank with 1 × 10^7 K562 cells. […] Tumour volume measured by a digital calliper (width × length × depth × π/6) was recorded three times per week. Animals were euthanized when tumours were necrotized or volume exceeded 2000 mm^3. Renca in vivo efficacy study was performed at Crown Biosciences Inc. (Taicang, China). […] Tumour volumes (length × width^2 × 0.5) were measured twice per week. […]

Molecules are shown by their SMILES. pIC50: −log10 of the molar value.

In general, pIC50 refers to the negative decadic logarithm of the IC50, by convention in mol/L. Turning to `CN(C)C[C@@H]1CC[C@@H](CCB(O)O)C[C@]1(N)C(=O)O` [OATD-02], on recombinant human ARG2, the pIC50 is 7.47. In the test on K562 tumours (50 mg/kg PO BID from day 6, day 19 post-inoculation), the “final TGI, K562 tumor volumes, athymic nude mice” value was determined as 49%.

As for `C[C@H](N)C(=O)N1C[C@H](CCCB(O)O)[C@](N)(C(=O)O)C1` [ref. ARGi, numidargistat, reference compound], on recombinant human ARG2, the pIC50 was 6.47. Moreover, in the test on K562 tumours (100 mg/kg PO BID (Figure 5 legend) from day 6, day 19 post-inoculation), the “final TGI, K562 tumor volumes, athymic nude mice” value was 14%.
